The record followed here is US20140213445A1, “Use of Pesticidal Active 3-Arylquinazolin-4-One Derivatives in Soil Application Methods” (BASF SE, priority 2011, published 2014).

Experiment [1] concerns 2-Spotted Spider Mite (Tetranychus urticae). Briefly: Test B.1.1 Foliar assay 2-spotted spider mite on Sieva lima bean plants. The experiment is classed as in vivo. Particulars: 120 h, test solution 100 ppm, infested lima bean plants dipped, counts after 5 days, read-out: mortality in comparison with untreated controls. On the procedure: The active compounds were formulated in 50:50 (vol:vol) acetone:water and 100 ppm Kinetica™ surfactant.
At about 2 hours before treatment Sieva lima bean plants with primary leaves expanded to 7-12 cm were infested by placing on each a small piece from an infested leaf (with about 100 mites) taken from the main colony in order to allow the mites to move over to the test plant to lay eggs. The piece of leaf used to transfer the mites was removed. The newly-infested plants were dipped in the test solution and allowed to dry. The test plants were kept under fluorescent light (24 hour photoperiod) at about 25° C. and about 20-40% relative humidity. After 5 days mortality counts were made.

For experiment [2], the system named is Kanzawa Spider Mite (Tetranychus kanzawai). Briefly: Test B.1.2 Foliar assay Kanzawa spider mite on potted cotton plants. The format is in vivo. The settings on record: cotton plants sprayed, assessed after 24, 72 and 120 hours, read-out: mortality in comparison with untreated controls.
Experiment [3] has as its system root-knot nematode (Meliodogyne spp.) juveniles. As to the kind of experiment: Test B.2.1 Tomato soil drench against root-knot nematode juveniles. The experiment is classed as in vivo. The settings on record: soil drench 0.75 mg active ingredient/plant, galls counted at 14 DAT. On the procedure: Tomatoes were grown in potting soil until the approximate first true leaf stage (about 2 weeks after planting). Tomatoes were transplanted into play sand. Seven days after transplant, technical material of test compound was dissolved in acetone, and then water was added to achieve a final concentration of 50% acetone. 1 mL of solution was pipetted onto the tomato root zone. One day after treatment (DAT), each pot was infested with about 500 root-knot nematode (Meliodogyne spp.) juveniles in 1 ml distilled water. Immediately after infestation, plants were placed in the greenhouse. Plants were top watered and fertilized daily. At 14 DAT, the tomato roots were rinsed off, and the number of galls was counted. Replication was 5-times.

The subject of experiment [4] is two spotted spider mites (Tetranychus urticae). Particulars: soil drench 4 mg active ingredient/plant, mites released 4 days after treatment, assessed 5 days after release.
In experiment [5] the test system is two spotted spider mites. As to the kind of experiment: Test B.1.4 Seed treatment assay in cotton. The experiment is classed as in vivo. Particulars: cotton seed coated 0.5 mg active ingredient/seed, assessed 4 days after release of mites.
Experiment [6] concerns two spotted spider mites. Briefly: Test B.1.5 Seed treatment assay in cucumber. The format is in vivo. Particulars: cucumber seed coated 0.5 mg active ingredient/seed, assessed 4 days after release of mites. The protocol: Test solution comprising a compound of the present invention is prepared at desired concentration using water and acetone as organic solvent. Cucumber seeds are coated with such prepared test solution applied at the rate of 0.5 mg active ingredient/seed and sown to the pots. After plant emergence (eleven days after treatment & planting), a mixed population of two spotted spider mites is released onto the leaves.
Four days after the release of spider mites, the acaricidal efficacy is measured by means of the rating of the damage caused by spider mites.
Percent damage as lesions was visually assessed, and means were calculated for each treatment. Mean percent damage reduction relative to the solvent blank was calculated as 100−(mean % lesions in treatment/mean % lesions in Solvent blank)*100.

Each structure is given as a SMILES string.

Turning to `Cc1cc(F)c(-n2cnc3ccc(F)cc3c2=O)cc1SCC(F)(F)F` [CE.I.30, 6-Fluoro-3-[2-fluoro-4-methyl-5-2(2,2,2-trifluoroethylsulfanyl)-phenyl]-3H-quinazolin-4-one], the mortality at 100 ppm in experiment [1] was at least 70%.

Regarding `Cc1cc(F)c(-n2cnc3ccccc3c2=O)cc1SCC(F)(F)F` [CE.I.34, 2-(2,2,2-trifluoroethylsufanyl)-4-(4-oxo-quinazolin-3-yl)-5-fluoro-toluol], the mortality at 100 ppm in experiment [2] and in experiment [1] was at least 70% throughout.

As for `Cc1cc(F)c(-n2cnc3ccc(F)cc3c2=O)cc1[S+]([O-])CC(F)(F)F` (centres unmarked) [CE.I.31, 6-Fluoro-3-[2-fluoro-4-methyl-5-2(2,2,2-trifluoroethanesulfinyl)-phenyl]-3H-quinazolin-4-one], the mortality at 100 ppm in experiment [2] and in experiment [1] was at least 70% each time. The “mean percent reduction of galls in comparison with untreated controls” value in experiment [3] is recorded as “at least 90%”.

Turning to `Cc1cc(F)c(-n2cnc3ccc(OC(F)(F)F)cc3c2=O)cc1SCC(F)(F)F` [CE.I.32, 6-Trifluoromethoxy-3-[2-fluoro-4-methyl-5-2(2,2,2-trifluoroethylsulfanyl)-phenyl]-3H-quinazolin-4-one], in experiment [1], the mortality at 100 ppm was at least 70%.

Consider `Cc1cc(F)c(-n2cnc3ccc(OC(F)(F)F)cc3c2=O)cc1[S+]([O-])CC(F)(F)F` (centres unmarked) [CE.I.33, 6-Trifluormethoxy-3-[2-fluoro-4-methyl-5-2(2,2,2-trifluoroethanesulfinyl)-phenyl]-3H-quinazolin-4-one], for which the mortality at 100 ppm in experiment [2] and in experiment [1] was at least 70% each time.

For `Cc1cc(F)c(-n2cnc3ccccc3c2=O)cc1[S+]([O-])CC(F)(F)F` (centres unmarked) [CE.I.35, 2-(2,2,2-trifluoroethylsufinyl)-4-(4-oxo-quinazolin-3-yl)-5-fluoro-toluol], the “mean percent damage reduction in comparison with untreated controls” value in experiment [4] is reported as “at least 70%”. Further, the “mean percent damage reduction in the cotyledon stage” value is “at least 90%” with two spotted spider mites [5] and “at least 50%” in the experiment on two spotted spider mites [6]. Moreover, the mortality at 100 ppm in experiment [2] and in experiment [1] was at least 70% throughout.

The mortality is the percentage killed.
